Assay results taken from patent US7790762B2, “Compounds and methods for thiol-containing compound efflux and cancer treatment” (National Jewish Health, priority 2002, dated 2010).
Where two headings read alike, the source gives them in different places.

How the values were obtained:
Format in all cases: cell-based, human
A549 cells [1] = test: Intracellular GSH levels by HPLC-EC in A549 cells; conditions: for activity at 75 µM: A549, 75 μM; for activity at 25 µM / Intracellular GSH levels, % compared to control: A549, 25 μM; for effect on intracellular GSH (words): A549 cells
Protocol: (§1) Cell lines and culture conditions. Human lung epithelial cancer (A549), human leukemia HL-60 and human prostate (PC-3) tumor cells were purchased from ATCC (Manassas, Va.). A549 and PC-3 cells were grown in Ham's F12 medium (F12) and Kaighn's modification of Ham's F12 medium (F12K) with 2 mM L-glutamine (ATCC), respectively, supplemented with 10% fetal bovine serum (FBS) and 5% pen/strep (10,000 unit, Cellgro). HL-60 cells were grown in Iscove's modified Dulbecco's medium with 4 mM L-glutamine (ATCC) supplemented with 20% FBS and 5% pen/strep. Cell were grown in T-75 flask at 37° C. and 5% CO2 air atmosphere and in 24-well plates for GSH levels and LDH release measurements.
(§2) Intracellular levels of GSH. Intracellular GSH levels can be determined by HPLC-EC. Cultured cells from 24-well plates were washed once with 1 ml of PBS and then re-suspended in 0.5 ml of distilled water with 40 μM of digitonin (2 mM stock solution in DMSO) for 30 min at room temperature. Then, 50 μl of 10% meta-phosphoric acid were added (1% final concentration), the samples were sonicated for 2 min, centrifuged at 20,000 g for 10 min, and 0.2 ml of supernatant placed in vials for HPLC analysis. […] The flow rate was […]. The retention time for GSH in these conditions was 7.5 min. The HPLC instrument was from ESA, Inc. (Chelmsford, Mass.), equipped with an autosampler (model 540) and a Coul array detector (model 5600A). The potential applied was +0.75 V vs. H/Pd electrode, and the injection volume 5 μl.

HL-60 cells [2] = test: Cytotoxicity as LDH release in HL-60 cells; conditions: Homo sapiens, 48 hours treatment, read-out: LDH rel. % con.; for LDH release, % of control at 50 µM: HL-60, 50 μM; for LDH release, % of control at 25 µM: HL-60, 25 μM
Protocol: as §1
(§3) Assessment of cytotoxicity. In one exemplary method, membrane integrity of A549, HL-60 and PC-3 cells was used as an index of drug-induced cytotoxicity, and was assessed by monitoring the release of cytosolic lactate dehydrogenase (LDH). LDH activity was measured in the culture medium and cell lysates (50 mM HEPES, Triton X-100 0.5%, pH 7) using a plate reader format as previously described (41). Briefly, 5 μl of cell culture supernatant and lysates were incubated with 0.24 mM NADH in a Tris/NaCl pH 7.2 buffer in 96-well plates for 5 min at 25° C. The reaction was started by the addition of 9.8 mM pyruvate and the consumption of NADH followed at 340 nm for 5 min at 30° C. Percent LDH release was calculated by the following: (supernatant LDH/supernatant LDH+lysate LDH)×100.

PC-3 cells [3] = test: Cytotoxicity as LDH release in PC-3 cells; conditions: Homo sapiens; PC-3, 50 μM, 48 hours treatment; read-out: LDH rel. % con.
Protocol: as §1, §3

HL-60 cells [4] = test: Intracellular GSH levels by HPLC-EC in HL-60 cells; conditions: for activity at 75 µM: HL-60, 75 μM; for activity at 25 µM: HL-60, 25 μM
Protocol: as §1, §2

A549 cells [5] = test: Cytotoxicity as LDH release in A549 cells; conditions: Homo sapiens, 48 hours treatment, read-out: LDH rel. % con.; for LDH release, % of control at 75 µM: A549, 75 μM
Protocol: as §1, §3

PC-3 cells [6] = test: Intracellular GSH levels by HPLC-EC in PC-3 cells; conditions: for activity at 50 µM / activity at 25 µM: Homo sapiens, 24 hours treatment, read-out: Int. GSH % con.; for activity at 50 µM: PC-3, 50 μM; for activity at 25 µM: PC-3, 25 μM
Protocol: as §1, §2

[7] = Homo sapiens, 24 hours treatment, read-out: Int. GSH % con.
[8] = Homo sapiens, 2 h, read-out: Intracellular GSH levels, % compared to control
[9] = Homo sapiens, 4 h, read-out: Intracellular GSH levels, % compared to control

SMILES	LDH release, % of control at 50 µM (HL-60 cells [2]) [%]	LDH release, % of control at 50 µM (PC-3 cells [3]) [%]	LDH release, % of control at 75 µM (A549 cells [5]) [%]	activity at 25 µM (PC-3 cells [6]) [%]	activity at 25 µM (A549 cells [1]; [8]) [%]	activity at 25 µM (A549 cells [1]; [9]) [%]	also measured
Oc1cc(O)c2c(c1)O[C@H](c1ccc(O)c(O)c1)[C@H](O)C2 [Epicatechin, (−)-epicatechin]	76	88	104	–	–	–	activity at 75 µM (A549 cells [1]; [7]): 47%; activity at 75 µM (HL-60 cells [4]; [7]): 90%; activity at 50 µM (PC-3 cells [6]): 115%
COc1cc(/C=C/C(=O)CC(=O)/C=C/c2ccc(O)c(OC)c2)ccc1O [Curcumin, reference compound]	–	180	140	170	–	–	activity at 50 µM (A549 cells [1]; Homo sapiens, A549, 50 μM, 24 hours treatment, read-out: Int. GSH % con.): 53%; LDH release, % of control at 25 µM (HL-60 cells [2]): 180%; activity at 25 µM (HL-60 cells [4]; [7]): 221%
O=c1c(O)c(-c2ccccc2)oc2cc(O)cc(O)c12 [Galangin, 3,5,7 trihydroxyflavone]	114	140	155	68	62.9 ± 0.4	–	activity at 25 µM (A549 cells [1]; [7]): < 5%; activity at 50 µM (HL-60 cells [4]; Homo sapiens, HL-60, 50 μM, 24 hours treatment, read-out: Int. GSH % con.): 69%
Oc1ccc(C=Cc2cc(O)cc(O)c2)cc1 [Resveratrol]	143	135	249	108	–	–	activity at 75 µM (A549 cells [1]; [7]): 64%; effect on intracellular GSH (words) (HL-60 cells [4]; HL-60 cells): found effective in HL-60 cells; activity at 25 µM (HL-60 cells [4]; [7]): 61%
CN(C)C(=O)CCSC(SCCC(=O)O)c1cccc(/C=C/c2ccc3ccc(Cl)cc3n2)c1 (stereo not shown) [MK-571, reference compound]	–	143	–	41	62.6 ± 4.9	< 5	activity at 25 µM (A549 cells [1]; [7]): < 5%; LDH release, % of control at 25 µM (HL-60 cells [2]): 169%; activity at 25 µM (HL-60 cells [4]; [7]): 40%; LDH release, % of control at 50 µM (A549 cells [5]; A549, 50 μM): 249%
O=C(/C=C/c1ccccc1O)c1ccccc1O [2′,2-DHC, 2′ 2 dihydroxychalcone]	–	–	–	–	–	–	Intracellular GSH levels, % compared to control (A549 cells [1]; 2 h): <5%; Intracellular GSH levels, % compared to control (A549 cells [1]; 4 h): <5%
O=c1c(O)c(-c2ccc(O)cc2O)oc2cc(O)cc(O)c12 [Morin]	97	80	112	–	–	–	activity at 75 µM (A549 cells [1]; [7]): 72%; activity at 75 µM (HL-60 cells [4]; [7]): 86%; activity at 50 µM (PC-3 cells [6]): 125%; effect on intracellular GSH (words) (PC-3 cells [6]; PC-3 cells, 50-75 μM): stimulated an increase in intracellular GSH
O=C(/C=C/c1ccccc1)c1ccc(O)cc1 [4′-HC, 4′-hydroxychalcone]	–	–	–	–	35.6 ± 2.9	< 5	intracellular GSH levels compared to control (HL-60 cells [4]; HL-60 cells, 25 μM, 24 hours of treatment (FIG. 19B)): 215%; intracellular GSH levels compared to control (PC-3 cells [6]; PC-3 cells, 25 μM, 24 hours of treatment (FIG. 19B)): 164%
COc1ccc2c(=O)cc(-c3ccccc3)oc2c1 [7-MF, 7-Methoxyflavone]	–	–	–	–	78.2 ± 2.4	–	effect on intracellular GSH (words) (A549 cells [1]): less effective than 7-HF but more effective than flavone
O=c1cc(-c2ccccc2)oc2cccc(O)c12 [5-HF, 5-hydroxyflavone]	–	–	–	–	–	44.7 ± 3.4	effect on intracellular GSH (words) (A549 cells [1]): less effective
O=C(/C=C/c1ccc(O)cc1)c1ccccc1 [4-HC, 4-hydroxychalcone]	–	–	–	–	5.5 ± 0.4	< 5	–
O=C(/C=C/c1ccccc1)c1ccc(O)cc1O [2′,4′-DHC, 2′ 4′ dihydroxychalcone]	–	–	–	–	–	–	Intracellular GSH levels, % compared to control (A549 cells [1]; 2 h): 22.0 ± 1.8%; Intracellular GSH levels, % compared to control (A549 cells [1]; 4 h): <5%
